According to patent US20250059139A1, “COMPOUNDS FOR TREATMENT OF CANCER” (THE JOHNS HOPKINS UNIVERSITY, priority 2021, published 2025):

Key:
[1] = biological target: T1, HDAC4-NCoR1 complex (Homo sapiens, UniProt P56524); assay: SPR inhibition of HDAC4-NCoR1 interaction; format: binding
T1 construct: Full-length (fl) [A.A. 1-1082] recombinant human histone deacetylase 4 (rhHDAC4) protein; FLAG (N); GST (given as 'with or without'); host or cells: HEK293-T (HDAC4)
Protocol: (§1) Surface Plasmon Resonance (SPR) Binding Analysis. SPR analysis was performed on the Biacore 3000™ system using CM5 sensor chips, certified buffers (HBS-P—10 mM HEPES, 0.15 M NaCl, pH 7.4, containing 0.005% v/v Surfactant P; HBS-EP-HBS-P with 3 mM EDTA) and reagents for immobilization and surface regeneration from Biacore, GE Healthcare, Uppsala Sweden. Evaluation of sensorgrams was performed using the BIA-evaluation Software version 4.1 and GraphPad Prism 4. Buffer of protein reagents were changed to HBS-P on Zeba spin desalting columns (Thermo Scientific) prior to being used in SPR analysis (Isaacs 2013).
C. Inhibition of HDAC4-NCoR1 interaction by TasQ. The interaction between HDAC4 and NCoR1 was studied either by injecting NCoR over immobilized HDAC4 or with an alternative orientation where HDAC4 was passed over a surface with covalently coupled NCoR1. Whether TasQ can inhibit the formation of the functional HDAC4-NCoR1 complex was tested by pre-incubation with NCoR1 or HDAC4.
To confirm that TasQ inhibits formation of the functional complex between HDAC4 and NCoR1, fl-NCoR1 in solution was injected over immobilized fl-HDAC4 after pre-incubation with TasQ in solution at concentrations ranging from 1 to 100 μM (FIG. 19). […] TasQ in solution inhibits this strong interaction by 50% at 10 μM (FIG. 20). […]

[2] = biological target: T2, fl-R681A/R798A double mutant HDAC4 (Homo sapiens, UniProt P56524, R681A/R798A); assay: SPR binding of fl-R681A/R798A double mutant HDAC4 to immobilized TasQ; conditions: TasQ in solution
T2 construct: Full-length (fl) [A.A. 1-1082] recombinant human histone deacetylase 4 (rhHDAC4) protein; FLAG (N); GST (given as 'with or without'); made in house; host or cells: HEK293-T
Protocol: as §1
A. Binding of wild-type and mutant forms of HDAC4 to immobilized TasQ. TasQ (ABR-215050; mol wt 406.4) was dissolved as a 40 mM solution in water with 1.5 equivalents of NaOH. TasQ with an amino-linker [i.e. —(CH2)2O(CH2)2—NH2](ABR-225180) in amide nitrogen position was used for amine coupling on to a Biacore CM5 sensor chip. A 1 mg/mL solution of ABR-225180 in HBS-P buffer was prepared and immobilized on a CM5 chip by injection at a flow rate of 5 or 10 μL/min until a stable response level was reached. Interaction of various HDAC4 forms with immobilized TasQ was studied by injection over this surface in HBS-P buffer containing 10 or 20 μM ZnCl2. Bound HDAC4 was removed by a pulse of 3 mM EDTA in HBS-P or 0.5 to 6.25 mM NaOH in water. […]

T1 sequence (P56524 whole entry, one chain of several): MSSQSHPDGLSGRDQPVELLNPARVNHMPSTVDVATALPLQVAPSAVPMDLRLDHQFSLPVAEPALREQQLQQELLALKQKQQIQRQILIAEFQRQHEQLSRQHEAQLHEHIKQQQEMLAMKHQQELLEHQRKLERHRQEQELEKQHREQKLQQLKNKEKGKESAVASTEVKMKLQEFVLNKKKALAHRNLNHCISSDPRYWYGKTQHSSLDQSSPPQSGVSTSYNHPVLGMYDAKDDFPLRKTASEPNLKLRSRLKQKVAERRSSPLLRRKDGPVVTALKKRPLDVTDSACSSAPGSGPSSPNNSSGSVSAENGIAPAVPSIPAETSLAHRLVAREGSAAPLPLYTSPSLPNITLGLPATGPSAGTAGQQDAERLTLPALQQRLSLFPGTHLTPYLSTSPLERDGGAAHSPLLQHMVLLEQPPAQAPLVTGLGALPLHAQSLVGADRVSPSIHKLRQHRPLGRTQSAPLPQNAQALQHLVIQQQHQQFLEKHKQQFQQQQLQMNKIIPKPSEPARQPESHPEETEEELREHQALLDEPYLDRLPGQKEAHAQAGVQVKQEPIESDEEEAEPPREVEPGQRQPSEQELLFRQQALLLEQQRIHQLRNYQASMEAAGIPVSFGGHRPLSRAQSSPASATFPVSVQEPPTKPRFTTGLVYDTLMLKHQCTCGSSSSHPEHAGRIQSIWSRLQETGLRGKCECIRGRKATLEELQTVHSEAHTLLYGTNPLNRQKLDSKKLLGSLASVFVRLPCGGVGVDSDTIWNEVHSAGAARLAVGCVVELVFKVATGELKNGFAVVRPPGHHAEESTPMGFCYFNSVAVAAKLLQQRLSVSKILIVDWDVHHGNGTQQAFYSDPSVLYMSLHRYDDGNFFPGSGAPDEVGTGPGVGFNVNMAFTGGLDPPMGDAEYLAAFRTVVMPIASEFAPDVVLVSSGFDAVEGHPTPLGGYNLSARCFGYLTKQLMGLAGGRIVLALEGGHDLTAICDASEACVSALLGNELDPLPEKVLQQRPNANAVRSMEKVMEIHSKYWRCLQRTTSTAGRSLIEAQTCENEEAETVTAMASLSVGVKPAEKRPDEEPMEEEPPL
T2 sequence (P56524 whole entry R681A/R798A): as the sequence (P56524 whole entry, one chain of several) above, with R681A, R798A counted along it

For COc1cccc2c1c(O)c(C(=O)N(C)c1ccc(C(F)(F)F)cc1)c(=O)n2C [TasQ, Tasquinimod], the inhibition at 10 µM ([1]; at 10 μM, read-out: inhibition of fl-NCoR1 binding to immobilized fl-HDAC4) was 50%, the IC50 ([1]; sigmoidal dose-response fit, read-out: IC50 for competitive inhibition of fl-HDAC4 binding to immobilized NCoR1) was 1100 nM and the “competitive displacement of mutant HDAC4 from immobilized TasQ” value [2] was “not competitively displaced”.
